Assay results from patent US7074789B2, “Kinase inhibitors” (Amgen Inc., priority 1999, dated 2006).

What was measured:
Type in all cases: biochemical
Fyn = target: T1, Fyn (Homo sapiens, UniProt P06241); experiment: Kinase inhibition assay (33P transfer), Fyn; details: read-out: Fyn-1
T1 construct: Kinases are expressed as either kinase domains or full length constructs; made in house
How it was run: (§1)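 Radiometric format: recombinant tagged kinase (catalytic domain or whole protein, sometimes combined with regulatory polypeptides) phosphorylates immobilised poly(Glu,Tyr) 4:1 or poly(Arg,Ser) 3:1 using [33P]ATP. Wells are washed in 0.5% phosphoric acid, then counted. IC50 is taken where substrate labelling falls by half.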

PDGFRB = target: T2, PDGFRB (Homo sapiens, UniProt P09619); experiment: Kinase inhibition assay (33P transfer), PDGFRB; details: read-out: PDGFRB-1
T2 construct: Kinases are expressed as either kinase domains or full length constructs; made in house
T2 sequence (P09619 33-1106, species assumed): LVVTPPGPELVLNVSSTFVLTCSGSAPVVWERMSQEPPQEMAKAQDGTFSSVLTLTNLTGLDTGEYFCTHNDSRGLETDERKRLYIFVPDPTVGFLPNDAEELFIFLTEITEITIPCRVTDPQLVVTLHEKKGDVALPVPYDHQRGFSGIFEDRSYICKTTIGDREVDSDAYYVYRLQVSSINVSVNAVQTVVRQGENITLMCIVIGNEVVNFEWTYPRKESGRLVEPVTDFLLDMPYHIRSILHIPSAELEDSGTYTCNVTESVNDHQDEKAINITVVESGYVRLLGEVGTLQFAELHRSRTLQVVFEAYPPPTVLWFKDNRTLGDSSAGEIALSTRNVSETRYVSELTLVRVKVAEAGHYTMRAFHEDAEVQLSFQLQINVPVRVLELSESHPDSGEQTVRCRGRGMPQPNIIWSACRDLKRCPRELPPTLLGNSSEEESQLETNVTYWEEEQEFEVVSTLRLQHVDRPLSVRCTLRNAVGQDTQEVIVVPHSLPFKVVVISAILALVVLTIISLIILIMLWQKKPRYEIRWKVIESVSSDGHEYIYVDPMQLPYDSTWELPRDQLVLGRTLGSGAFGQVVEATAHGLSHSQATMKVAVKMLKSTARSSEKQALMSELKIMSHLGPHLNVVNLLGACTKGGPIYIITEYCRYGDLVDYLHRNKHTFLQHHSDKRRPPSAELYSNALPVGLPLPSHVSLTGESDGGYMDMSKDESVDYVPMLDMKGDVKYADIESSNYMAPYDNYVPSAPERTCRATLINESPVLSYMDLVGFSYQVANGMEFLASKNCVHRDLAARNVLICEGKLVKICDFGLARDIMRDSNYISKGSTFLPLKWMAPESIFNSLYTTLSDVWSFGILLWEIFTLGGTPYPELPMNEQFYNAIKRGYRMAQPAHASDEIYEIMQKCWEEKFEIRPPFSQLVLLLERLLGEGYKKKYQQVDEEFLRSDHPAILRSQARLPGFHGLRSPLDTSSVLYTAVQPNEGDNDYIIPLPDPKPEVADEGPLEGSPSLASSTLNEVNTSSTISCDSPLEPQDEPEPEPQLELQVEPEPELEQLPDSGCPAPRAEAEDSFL

Src = target: T3, Src (Homo sapiens, UniProt P12931); experiment: Kinase inhibition assay (33P transfer), Src; details: Table 6, Src-1 kinase inhibition class
T3 construct: Kinases are expressed as either kinase domains or full length constructs; made in house
How it was run: as §1

Flt-1 = target: T4, Flt-1 (Homo sapiens, UniProt P17948); experiment: Kinase inhibition assay (33P transfer), Flt-1
T4 construct: Kinases are expressed as either kinase domains or full length constructs; made in house
How it was run: as §1

EGFR = target: T5, EGFR (Homo sapiens, UniProt P00533); experiment: Kinase inhibition assay (33P transfer), EGFR; details: Table 2, kinase inhibition class; read-out: EGFR-1
T5 construct: Kinases are expressed as either kinase domains or full length constructs; made in house
How it was run: as §1

IGFR-1 = target: T6, IGFR-1 (Homo sapiens, UniProt P08069); experiment: Kinase inhibition assay, IGFR-1 (Table 2); details: Table 2, kinase inhibition class
T6 construct: Kinases are expressed as either kinase domains or full length constructs; made in house

FGFR1 = target: T7, FGFR1 (Homo sapiens, UniProt P11362); experiment: Kinase inhibition assay (33P transfer), FGFR1; details: read-out: FGFR1-1
T7 construct: Kinases are expressed as either kinase domains or full length constructs; made in house

Zap-70 = target: T8, Zap-70 (Homo sapiens, UniProt P43403); experiment: Kinase inhibition assay (33P transfer), Zap-70; details: read-out: Zap-1
T8 construct: Kinases are expressed as either kinase domains or full length constructs; made in house
T8 sequence (P43403 1-619): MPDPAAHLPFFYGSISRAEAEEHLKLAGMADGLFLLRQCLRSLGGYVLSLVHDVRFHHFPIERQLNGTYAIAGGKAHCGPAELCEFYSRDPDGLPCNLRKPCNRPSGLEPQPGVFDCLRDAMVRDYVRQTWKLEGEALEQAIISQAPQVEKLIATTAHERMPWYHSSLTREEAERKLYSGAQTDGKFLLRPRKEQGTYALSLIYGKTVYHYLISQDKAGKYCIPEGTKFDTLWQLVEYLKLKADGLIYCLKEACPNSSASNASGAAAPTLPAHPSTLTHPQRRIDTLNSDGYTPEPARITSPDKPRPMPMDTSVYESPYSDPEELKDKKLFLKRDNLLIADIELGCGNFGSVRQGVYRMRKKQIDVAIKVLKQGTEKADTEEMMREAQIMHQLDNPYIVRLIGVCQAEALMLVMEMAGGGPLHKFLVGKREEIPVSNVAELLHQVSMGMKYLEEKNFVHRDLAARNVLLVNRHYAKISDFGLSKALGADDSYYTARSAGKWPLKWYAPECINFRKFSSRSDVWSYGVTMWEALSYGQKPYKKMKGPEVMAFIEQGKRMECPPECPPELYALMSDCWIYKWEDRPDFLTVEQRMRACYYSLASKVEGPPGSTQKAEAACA
How it was run: (§2)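 Steps: express kinase as GST or polyHistidine fusion in E. coli or High Five cells; optionally co-express or mix with regulatory polypeptides; incubate with 33P-ATP and plate-attached poly(Glu,Tyr) 4:1 or poly(Arg,Ser) 3:1; wash with 0.5% phosphoric acid; count by liquid scintillation.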

Hck-1 = target: T9, Hck-1 (Homo sapiens, UniProt P08631); experiment: Kinase inhibition assay (33P transfer), Hck; details: Table 6, Hck-1 kinase inhibition class
T9 construct: Kinases are expressed as either kinase domains or full length constructs; made in house

ErbB4 = target: T10, ErbB4 (Homo sapiens, UniProt Q15303); experiment: Kinase inhibition assay (33P transfer), ErbB4; details: read-out: ErbB4-1
T10 construct: Kinases are expressed as either kinase domains or full length constructs; made in house
T10 sequence (Q15303 26-1308, species assumed): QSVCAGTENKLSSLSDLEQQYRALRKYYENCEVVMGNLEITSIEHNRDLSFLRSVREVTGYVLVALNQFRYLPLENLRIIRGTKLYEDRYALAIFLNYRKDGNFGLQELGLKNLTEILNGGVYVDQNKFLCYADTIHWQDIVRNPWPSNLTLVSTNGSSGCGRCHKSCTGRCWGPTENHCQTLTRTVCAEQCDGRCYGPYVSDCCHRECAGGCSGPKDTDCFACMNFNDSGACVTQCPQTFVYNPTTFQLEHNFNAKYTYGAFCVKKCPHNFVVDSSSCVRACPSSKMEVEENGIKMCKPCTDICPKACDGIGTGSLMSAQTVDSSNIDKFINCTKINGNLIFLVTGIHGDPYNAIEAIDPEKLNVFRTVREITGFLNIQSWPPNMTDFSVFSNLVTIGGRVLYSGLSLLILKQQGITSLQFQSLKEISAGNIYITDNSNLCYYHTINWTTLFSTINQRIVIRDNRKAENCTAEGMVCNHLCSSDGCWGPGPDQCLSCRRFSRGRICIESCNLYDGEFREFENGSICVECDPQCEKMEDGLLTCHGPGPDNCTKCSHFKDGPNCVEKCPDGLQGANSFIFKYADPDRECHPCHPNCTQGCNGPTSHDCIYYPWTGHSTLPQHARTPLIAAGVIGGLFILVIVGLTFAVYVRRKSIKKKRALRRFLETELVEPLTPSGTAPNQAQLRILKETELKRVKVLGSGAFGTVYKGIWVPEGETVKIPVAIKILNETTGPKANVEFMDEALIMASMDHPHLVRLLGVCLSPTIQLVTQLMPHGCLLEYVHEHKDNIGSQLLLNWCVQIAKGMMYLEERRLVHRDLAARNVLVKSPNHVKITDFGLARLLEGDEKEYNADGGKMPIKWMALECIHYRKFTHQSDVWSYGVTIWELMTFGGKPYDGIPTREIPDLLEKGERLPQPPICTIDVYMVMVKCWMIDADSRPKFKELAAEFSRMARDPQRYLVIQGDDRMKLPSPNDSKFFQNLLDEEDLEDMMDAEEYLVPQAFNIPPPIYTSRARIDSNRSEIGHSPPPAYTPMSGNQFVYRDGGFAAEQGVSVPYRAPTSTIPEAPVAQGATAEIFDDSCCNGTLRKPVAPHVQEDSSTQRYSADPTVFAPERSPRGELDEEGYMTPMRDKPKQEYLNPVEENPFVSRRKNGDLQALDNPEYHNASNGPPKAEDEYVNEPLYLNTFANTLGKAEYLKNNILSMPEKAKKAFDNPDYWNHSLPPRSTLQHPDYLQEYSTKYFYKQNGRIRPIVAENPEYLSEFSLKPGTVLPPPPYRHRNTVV

Kdr = target: T11, Kdr (Homo sapiens, UniProt P35968); experiment: Kinase inhibition assay (33P transfer), Kdr; details: read-out: KDR-1
T11 construct: Kinases are expressed as either kinase domains or full length constructs; made in house
T11 sequence (P35968 20-1356, species assumed): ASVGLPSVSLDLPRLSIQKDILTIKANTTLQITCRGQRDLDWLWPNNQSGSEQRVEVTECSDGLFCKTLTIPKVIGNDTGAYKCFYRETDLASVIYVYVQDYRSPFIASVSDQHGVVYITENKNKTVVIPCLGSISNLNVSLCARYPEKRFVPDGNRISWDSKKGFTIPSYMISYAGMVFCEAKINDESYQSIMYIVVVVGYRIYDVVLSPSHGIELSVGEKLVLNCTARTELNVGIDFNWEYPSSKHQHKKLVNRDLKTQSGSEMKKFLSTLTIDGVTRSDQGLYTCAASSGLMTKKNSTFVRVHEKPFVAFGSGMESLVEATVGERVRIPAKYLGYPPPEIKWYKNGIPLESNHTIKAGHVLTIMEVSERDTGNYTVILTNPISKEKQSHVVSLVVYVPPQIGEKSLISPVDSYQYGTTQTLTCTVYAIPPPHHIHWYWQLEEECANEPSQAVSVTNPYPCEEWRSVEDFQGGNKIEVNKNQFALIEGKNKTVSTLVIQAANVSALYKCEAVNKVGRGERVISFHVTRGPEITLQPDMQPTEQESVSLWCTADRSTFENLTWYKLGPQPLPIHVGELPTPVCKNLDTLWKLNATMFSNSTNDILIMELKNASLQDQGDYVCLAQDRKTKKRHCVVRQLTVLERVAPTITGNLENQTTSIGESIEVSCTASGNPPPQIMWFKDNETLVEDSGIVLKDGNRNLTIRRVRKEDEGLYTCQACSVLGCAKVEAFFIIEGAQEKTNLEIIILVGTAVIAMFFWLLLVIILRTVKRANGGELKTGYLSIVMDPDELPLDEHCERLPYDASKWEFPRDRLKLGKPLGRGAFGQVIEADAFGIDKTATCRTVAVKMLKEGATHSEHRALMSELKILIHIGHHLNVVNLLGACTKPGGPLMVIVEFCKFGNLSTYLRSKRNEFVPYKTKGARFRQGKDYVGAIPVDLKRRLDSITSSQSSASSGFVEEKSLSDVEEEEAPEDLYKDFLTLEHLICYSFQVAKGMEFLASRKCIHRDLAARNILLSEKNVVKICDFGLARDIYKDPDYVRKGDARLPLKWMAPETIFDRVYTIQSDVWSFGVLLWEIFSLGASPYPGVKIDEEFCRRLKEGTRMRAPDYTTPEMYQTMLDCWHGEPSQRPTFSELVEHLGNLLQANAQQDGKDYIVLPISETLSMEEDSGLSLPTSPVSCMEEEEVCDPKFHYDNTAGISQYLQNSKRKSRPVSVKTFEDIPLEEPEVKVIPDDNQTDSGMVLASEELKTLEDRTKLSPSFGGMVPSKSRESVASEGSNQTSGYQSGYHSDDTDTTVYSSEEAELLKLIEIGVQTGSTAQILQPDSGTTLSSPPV
How it was run: as §2

Ret-1 = target: T12, Ret-1 (Homo sapiens, UniProt P07949); experiment: Kinase inhibition assay (33P transfer), Ret; details: Table 6, Ret-1 kinase inhibition class
T12 construct: Kinases are expressed as either kinase domains or full length constructs; made in house

Lck = target: T13, Lck (Homo sapiens, UniProt P06239); experiment: Kinase inhibition assay (33P transfer), Lck; details: read-out: Lck-1
T13 construct: Kinases are expressed as either kinase domains or full length constructs; made in house
T13 sequence (P06239 whole entry, species assumed, the tested form may be a part): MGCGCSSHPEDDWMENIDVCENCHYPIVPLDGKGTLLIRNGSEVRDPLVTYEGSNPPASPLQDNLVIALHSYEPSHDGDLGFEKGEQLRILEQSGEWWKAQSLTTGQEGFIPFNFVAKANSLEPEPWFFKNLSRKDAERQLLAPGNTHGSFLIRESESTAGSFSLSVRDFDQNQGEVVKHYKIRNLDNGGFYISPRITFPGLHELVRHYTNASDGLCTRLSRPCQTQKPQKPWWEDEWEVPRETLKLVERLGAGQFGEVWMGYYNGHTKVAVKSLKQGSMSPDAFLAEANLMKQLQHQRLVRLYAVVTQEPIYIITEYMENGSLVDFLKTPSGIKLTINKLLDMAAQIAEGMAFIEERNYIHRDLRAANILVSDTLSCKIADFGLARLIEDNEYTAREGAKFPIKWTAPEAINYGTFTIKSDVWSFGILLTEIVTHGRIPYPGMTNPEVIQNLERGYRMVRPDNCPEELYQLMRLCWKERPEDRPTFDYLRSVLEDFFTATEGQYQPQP
How it was run: as §2

Tek = target: T14, Tek (Homo sapiens, UniProt Q02763); experiment: Kinase inhibition assay (33P transfer), Tek; details: read-out: Tek-1
T14 construct: Kinases are expressed as either kinase domains or full length constructs; made in house
How it was run: as §1

Itk = target: T15, Itk (Homo sapiens, UniProt Q08881); experiment: Kinase inhibition assay (33P transfer), Itk; details: read-out: Itk-1
T15 construct: Kinases are expressed as either kinase domains or full length constructs; made in house
T15 sequence (Q08881 1-620): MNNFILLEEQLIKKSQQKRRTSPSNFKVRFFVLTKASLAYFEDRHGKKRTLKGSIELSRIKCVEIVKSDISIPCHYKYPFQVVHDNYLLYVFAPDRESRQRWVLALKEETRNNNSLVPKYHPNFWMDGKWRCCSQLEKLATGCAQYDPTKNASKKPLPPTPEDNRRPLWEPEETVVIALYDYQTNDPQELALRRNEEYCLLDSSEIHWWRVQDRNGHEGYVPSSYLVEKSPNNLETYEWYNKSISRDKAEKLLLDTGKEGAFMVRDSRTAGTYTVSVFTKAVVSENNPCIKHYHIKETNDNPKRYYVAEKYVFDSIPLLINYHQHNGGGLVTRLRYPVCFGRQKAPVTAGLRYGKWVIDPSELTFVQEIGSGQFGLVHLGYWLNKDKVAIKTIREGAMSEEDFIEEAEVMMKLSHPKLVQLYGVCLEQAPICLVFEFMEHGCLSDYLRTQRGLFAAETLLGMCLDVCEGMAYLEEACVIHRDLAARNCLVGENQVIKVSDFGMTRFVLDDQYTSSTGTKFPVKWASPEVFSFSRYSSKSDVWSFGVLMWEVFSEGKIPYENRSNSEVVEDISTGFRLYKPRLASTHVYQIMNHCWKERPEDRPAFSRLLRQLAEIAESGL
How it was run: as §1

Lyn = target: T16, Lyn (Homo sapiens, UniProt P07948); experiment: Kinase inhibition assay (33P transfer), Lyn; details: Table 6, Lyn-1 kinase inhibition class
T16 construct: Kinases are expressed as either kinase domains or full length constructs; made in house
How it was run: as §1

c-Met = target: T17, c-Met (Homo sapiens, UniProt P08581); experiment: Kinase inhibition assay (33P transfer), c-Met; details: Table 2, kinase inhibition class; read-out: Met-1
T17 construct: Kinases are expressed as either kinase domains or full length constructs; made in house
How it was run: as §1

ErbB2 = target: T18, ErbB2 (Homo sapiens, UniProt P04626); experiment: Kinase inhibition assay (33P transfer), ErbB2; details: read-out: ErbB2-2
T18 construct: Kinases are expressed as either kinase domains or full length constructs; made in house
How it was run: as §1

AKT = target: T19, AKT (Homo sapiens, UniProt Q9Y243); experiment: Kinase inhibition assay (33P transfer), AKT; details: Table 2, kinase inhibition class; read-out: AKT3-1
T19 construct: Kinases are expressed as either kinase domains or full length constructs; made in house
T19 sequence (Q9Y243 whole entry, the tested form may be a part): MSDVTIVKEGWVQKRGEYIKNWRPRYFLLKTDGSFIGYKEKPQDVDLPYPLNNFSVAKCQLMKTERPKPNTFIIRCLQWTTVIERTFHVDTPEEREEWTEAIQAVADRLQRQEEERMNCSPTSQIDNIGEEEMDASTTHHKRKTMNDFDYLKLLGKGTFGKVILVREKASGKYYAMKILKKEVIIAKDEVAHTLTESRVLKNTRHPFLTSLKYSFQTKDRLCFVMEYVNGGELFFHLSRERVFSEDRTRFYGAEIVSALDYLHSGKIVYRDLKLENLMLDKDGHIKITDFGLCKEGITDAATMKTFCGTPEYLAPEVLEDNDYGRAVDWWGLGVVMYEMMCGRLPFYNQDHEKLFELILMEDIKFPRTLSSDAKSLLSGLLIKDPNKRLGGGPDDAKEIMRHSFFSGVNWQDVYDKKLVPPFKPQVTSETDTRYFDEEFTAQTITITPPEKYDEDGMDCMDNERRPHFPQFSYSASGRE
How it was run: as §2

Structure (SMILES)	IC50 (Fyn) [µM]	IC50 (PDGFRB) [µM]	IC50 (Src) [µM]	IC50 (Flt-1) [µM]	IC50 (EGFR) [µM]	IC50 (IGFR-1) [µM]	IC50 (FGFR1) [µM]	IC50 (Zap-70) [µM]	IC50 (Hck-1) [µM]	IC50 (ErbB4) [µM]	IC50 (Kdr) [µM]	IC50 (Ret-1) [µM]	IC50 (Lck) [µM]	IC50 (Tek) [µM]	IC50 (Itk) [µM]	IC50 (Lyn) [µM]	IC50 (c-Met) [µM]	IC50 (ErbB2) [µM]	IC50 (AKT) [µM]
COc1cc(Nc2ncnc(-n3c(NCc4cccc(Br)c4)nc4ccccc43)n2)cc(OC)c1OC [Compound 946]	> 8	< 0.711	> 8	0.711 to 4.27	6.22 to 8	4.27 to 6.22	< 0.711	> 8	> 8	> 8	0.711 to 4.27	0.711 to 4.27	0.711 to 4.27	> 8	> 8	< 0.711	6.22 to 8	> 8	> 8
COc1cc(Nc2ncnc(N3c4ccccc4CC3C)n2)cc(OC)c1OC (centres unmarked) [Compound 610]	1.02 to 6.1	< 1.02	1.02 to 6.1	< 1.02	1.02 to 6.1	1.02 to 6.1	< 1.02	> 11.4	> 11.4	1.02 to 6.1	< 1.02	< 1.02	< 1.02	6.1 to 8.9	1.02 to 6.1	< 1.02	1.02 to 6.1	1.02 to 6.1	> 11.4

The next lines start with the values.

IC50 (Fyn) [µM]	IC50 (PDGFRB) [µM]	IC50 (Src) [µM]	IC50 (Flt-1) [µM]	IC50 (EGFR) [µM]	IC50 (IGFR-1) [µM]	IC50 (FGFR1) [µM]	IC50 (Zap-70) [µM]	IC50 (Hck-1) [µM]	IC50 (ErbB4) [µM]	IC50 (Kdr) [µM]	IC50 (Ret-1) [µM]	IC50 (Lck) [µM]	IC50 (Tek) [µM]	IC50 (Itk) [µM]	IC50 (Lyn) [µM]	IC50 (c-Met) [µM]	IC50 (ErbB2) [µM]	IC50 (AKT) [µM]	Structure (SMILES)
< 0.796	< 0.796	< 0.796	0.796 to 4.78	< 0.796	4.78 to 6.96	0.796 to 4.78	> 8.95	0.796 to 4.78	0.796 to 4.78	0.796 to 4.78	0.796 to 4.78	< 0.796	0.796 to 4.78	6.96 to 8.95	< 0.796	> 8.95	0.796 to 4.78	> 8.95	COc1cc(Nc2ncnc(Nc3cccc4ccccc34)n2)cc(OCCN2CCOCC2)c1OC [Compound 953]
> 9.04	< 0.804	> 9.04	< 0.804	> 9.04	> 9.04	< 0.804	> 9.04	> 9.04	0.804 to 4.82	< 0.804	< 0.804	< 0.804	7.03 to 9.04	> 9.04	0.804 to 4.82	> 9.04	7.03 to 9.04	> 9.04	COc1cc(Nc2ncnc(-n3c(NCc4ccccc4C)nc4ccccc43)n2)cc(OC)c1OC [Compound 511]
0.995 to 5.97	< 0.995	< 0.995	0.995 to 5.97	< 0.995	0.995 to 5.97	0.995 to 5.97	> 11.2	5.97 to 8.71	0.995 to 5.97	< 0.995	< 0.995	< 0.995	0.995 to 5.97	> 11.2	0.995 to 5.97	< 0.995	0.995 to 5.97	> 11.2	COc1cc(Nc2ncnc(N(C)c3ccc(Cl)cc3)n2)cc(OC)c1OC [Compound 616]
